Data taken from publication PMC6073232 (International Journal of Molecular Sciences, 2018).

How the values were obtained:
TRESK (K2P18.1) [1] = biological target: T1, TRESK (K2P18.1) (Mus musculus, UniProt Q6VV64); experiment: whole-cell patch clamp (abstract prints IC50 […]); format: cell-based
T1 construct: gene Kcnk18; mouse TRESK (NM_207261) in HEK-293 cells
T1 sequence (Q6VV64 1-394): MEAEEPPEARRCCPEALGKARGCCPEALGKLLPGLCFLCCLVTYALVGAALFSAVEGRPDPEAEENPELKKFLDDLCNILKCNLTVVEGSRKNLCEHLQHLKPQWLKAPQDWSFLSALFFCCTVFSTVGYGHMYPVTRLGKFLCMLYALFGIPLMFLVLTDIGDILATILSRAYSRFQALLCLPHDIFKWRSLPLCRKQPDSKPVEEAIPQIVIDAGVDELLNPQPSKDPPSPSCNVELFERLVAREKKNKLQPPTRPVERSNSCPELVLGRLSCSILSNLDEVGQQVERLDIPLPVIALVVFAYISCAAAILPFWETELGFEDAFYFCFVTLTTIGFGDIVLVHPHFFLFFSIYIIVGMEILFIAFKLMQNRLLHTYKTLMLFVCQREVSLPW

TRESK (K2P18.1) [2] = biological target: T1, TRESK (K2P18.1); experiment: whole-cell patch clamp, % inhibition at […]; format: cell-based

COC(=O)C1=C(C)NC(C)=C(C(=O)OC)C1c1ccccc1[N+](=O)[O-] [nifedipine]
IC50 (TRESK (K2P18.1) [1]): 63.8 µM

COc1ccc(CCN(C)CCCC(C#N)(c2cc(OC)c(OC)c(OC)c2)C(C)C)cc1OC (centres unmarked) [D600]
inhibition at 20 µM (TRESK (K2P18.1) [2]): 45 ± 6%
